According to US4257941A, “Polycyclic nitrogen-containing compounds” (BASF Aktiengesellschaft, priority 1976, dated 1981):
Structures can show the parent of a compound that is named as a salt.

Test system: lawns
Test: Long-term action on lawns (Example 14)
Type: in vivo
Conditions: for First cutting, green weight relative / First cutting, growth height relative / Second cutting, green weight relative / Second cutting, growth height relative / Third cutting, green weight relative: control 100

SMILES	First cutting, green weight (0.5 kg/ha) [g]	First cutting, growth height (0.5 kg/ha) [cm]	Second cutting, green weight (0.5 kg/ha) [g]	Second cutting, growth height (0.5 kg/ha) [cm]	Third cutting, green weight (0.5 kg/ha) [g]	First cutting, green weight relative (0.5 kg/ha)	First cutting, growth height relative (0.5 kg/ha)	Second cutting, green weight relative (0.5 kg/ha)	Second cutting, growth height relative (0.5 kg/ha)	Third cutting, green weight relative (0.5 kg/ha)	First cutting, green weight (1.0 kg/ha) [g]	First cutting, growth height (1.0 kg/ha) [cm]	Second cutting, green weight (1.0 kg/ha) [g]	Second cutting, growth height (1.0 kg/ha) [cm]	Third cutting, green weight (1.0 kg/ha) [g]	First cutting, green weight relative (1.0 kg/ha)	First cutting, growth height relative (1.0 kg/ha)	Second cutting, green weight relative (1.0 kg/ha)	Second cutting, growth height relative (1.0 kg/ha)	Third cutting, green weight relative (1.0 kg/ha)	also measured
Fc1ccc(N2N=NC3C4CC(C5N=NC45)C32)cc1 (stereo not shown)	23.1	15.0	21.8	10.0	14.6	65.4	83.3	81.6	68.0	96.1	20.5	12.5	21.4	9.0	13.5	58.1	69.5	80.1	61.2	88.8	First cutting, green weight (2.0 kg/ha): 9.8 g; First cutting, growth height (2.0 kg/ha): 7.5 cm; Second cutting, green weight (2.0 kg/ha): 10.1 g; Second cutting, growth height (2.0 kg/ha): 5.0 cm; Third cutting, green weight (2.0 kg/ha): 9.5 g; First cutting, green weight relative (2.0 kg/ha): 27.8; First cutting, growth height relative (2.0 kg/ha): 41.7; Second cutting, green weight relative (2.0 kg/ha): 37.8; Second cutting, growth height relative (2.0 kg/ha): 34.0; Third cutting, green weight relative (2.0 kg/ha): 62.5; First cutting, green weight (4.0 kg/ha): 7.9 g; First cutting, growth height (4.0 kg/ha): 6.5 cm; Second cutting, green weight (4.0 kg/ha): 7.1 g; Second cutting, growth height (4.0 kg/ha): 2.0 cm; Third cutting, green weight (4.0 kg/ha): 7.9 g; First cutting, green weight relative (4.0 kg/ha): 22.4; First cutting, growth height relative (4.0 kg/ha): 36.1; Second cutting, green weight relative (4.0 kg/ha): 26.6; Second cutting, growth height relative (4.0 kg/ha): 13.6; Third cutting, green weight relative (4.0 kg/ha): 52.0
Cc1ccccc1N1N=NC2C3CC(C4N=NC34)C21 (stereo not shown)	26.8	14.0	23.5	13.0	16.5	75.9	77.8	88.0	88.4	108.6	25.5	14.0	22.0	12.5	16.3	72.2	77.8	82.4	85.0	107.2	First cutting, green weight (2.0 kg/ha): 20.0 g; First cutting, growth height (2.0 kg/ha): 12.5 cm; Second cutting, green weight (2.0 kg/ha): 21.4 g; Second cutting, growth height (2.0 kg/ha): 22.0 cm; Third cutting, green weight (2.0 kg/ha): 15.7 g; First cutting, green weight relative (2.0 kg/ha): 56.7; First cutting, growth height relative (2.0 kg/ha): 69.5; Second cutting, green weight relative (2.0 kg/ha): 80.1; Second cutting, growth height relative (2.0 kg/ha): 74.8; Third cutting, green weight relative (2.0 kg/ha): 103.3; First cutting, green weight (4.0 kg/ha): 13.2 g; First cutting, growth height (4.0 kg/ha): 9.5 cm; Second cutting, green weight (4.0 kg/ha): 15.3 g; Second cutting, growth height (4.0 kg/ha): 7.5 cm; Third cutting, green weight (4.0 kg/ha): 13.9 g; First cutting, green weight relative (4.0 kg/ha): 37.4; First cutting, growth height relative (4.0 kg/ha): 52.8; Second cutting, green weight relative (4.0 kg/ha): 57.3; Second cutting, growth height relative (4.0 kg/ha): 51.0; Third cutting, green weight relative (4.0 kg/ha): 91.4
CC(=O)Nc1ccc(C)c(NS(=O)(=O)C(F)(F)F)c1 [S, diethanolamine salt of 3-trifluoromethylsulfonamido-p-acetotoluidide, reference compound]	26.7	14.5	27.3	14.0	15.6	75.6	80.6	102.2	95.2	102.6	23.0	13.0	27.6	12.5	15.0	65.2	72.2	103.4	85.0	98.6	First cutting, green weight (2.0 kg/ha): 12.6 g; First cutting, growth height (2.0 kg/ha): 10.5 cm; Second cutting, green weight (2.0 kg/ha): 20.1 g; Second cutting, growth height (2.0 kg/ha): 9.5 cm; Third cutting, green weight (2.0 kg/ha): 13.7 g; First cutting, green weight relative (2.0 kg/ha): 35.7; First cutting, growth height relative (2.0 kg/ha): 58.3; Second cutting, green weight relative (2.0 kg/ha): 75.3; Second cutting, growth height relative (2.0 kg/ha): 64.6; Third cutting, green weight relative (2.0 kg/ha): 90.1; First cutting, green weight (4.0 kg/ha): 9.4 g; First cutting, growth height (4.0 kg/ha): 9.0 cm; Second cutting, green weight (4.0 kg/ha): 9.6 g; Second cutting, growth height (4.0 kg/ha): 4.5 cm; Third cutting, green weight (4.0 kg/ha): 10.4 g; First cutting, green weight relative (4.0 kg/ha): 26.6; First cutting, growth height relative (4.0 kg/ha): 50.0; Second cutting, green weight relative (4.0 kg/ha): 36.0; Second cutting, growth height relative (4.0 kg/ha): 30.6; Third cutting, green weight relative (4.0 kg/ha): 68.4
Brc1ccc(N2N=NC3C4CC(C5N=NC45)C32)cc1 (stereo not shown) [drawing 380]	25.5	14.5	27.8	14.5	16.5	72.2	80.6	104.1	98.6	108.6	24.4	12.5	25.1	11.5	16.5	69.1	69.5	94.0	78.2	108.6	First cutting, green weight (2.0 kg/ha): 22.0 g; First cutting, growth height (2.0 kg/ha): 11.0 cm; Second cutting, green weight (2.0 kg/ha): 18.7 g; Second cutting, growth height (2.0 kg/ha): 8.0 cm; Third cutting, green weight (2.0 kg/ha): 14.0 g; First cutting, green weight relative (2.0 kg/ha): 62.3; First cutting, growth height relative (2.0 kg/ha): 61.1; Second cutting, green weight relative (2.0 kg/ha): 70.0; Second cutting, growth height relative (2.0 kg/ha): 54.4; Third cutting, green weight relative (2.0 kg/ha): 92.1; First cutting, green weight (4.0 kg/ha): 16.5 g; First cutting, growth height (4.0 kg/ha): 10.5 cm; Second cutting, green weight (4.0 kg/ha): 13.2 g; Second cutting, growth height (4.0 kg/ha): 7.0 cm; Third cutting, green weight (4.0 kg/ha): 10.3 g; First cutting, green weight relative (4.0 kg/ha): 46.7; First cutting, growth height relative (4.0 kg/ha): 58.3; Second cutting, green weight relative (4.0 kg/ha): 49.4; Second cutting, growth height relative (4.0 kg/ha): 47.6; Third cutting, green weight relative (4.0 kg/ha): 67.8
